Measured values: US11504365B2 (AVEO Pharmaceuticals, Inc., priority 2018, dated 2022)
Where two headings read alike, the source gives them in different places.

Columns and labels:
[1] = tested on: refractory advanced renal cell carcinoma (RCC); experiment: Randomized open-label Phase 3 study of tivozanib versus sorafenib, efficacy (PFS, OS, ORR, DoR); settings: for median PFS: ITT population, independent radiologic review, stratified log rank p-value 0.0165; for median OS: ITT, two years after final patient enrollment, stratified log rank p-value 0.9501; for median PFS, subset receiving a prior check point inhibitor: prior checkpoint inhibitor at any time, tivozanib n=52, sorafenib n=46, unstratified Log-rank p-value 0.0616; for duration of response (DoR), 1st quartile: subjects with objective tumor response (PR or CR), not statistically significant; for 1-year probability of survival: subjects with prior checkpoint inhibitor, FIG. 5 (Kaplan-Meier analysis of IRR PFS)
Text: (§1) The randomization of subjects was stratified according to the International Metastatic Renal Cell Carcinoma Database Consortium (IMDC) risk category (favorable, intermediate, poor) and according to prior therapy which could be: 1) two prior VEGFR TKIs; 2) a check point inhibitor (e.g., a PD-1 or PDL-1 inhibitor) and a prior VEGFR TKI; or 3) a VEGFR TKI plus any other systemic agent. Once the strata were identified, treatment was randomly assigned to a subject with the strata using a complete permuted block design in an unblended fashion (open-label).
Cycles were repeated every 4 weeks.
(§2) Subjects were analyzed as randomized • 2. […] Subjects were analyzed as treated. • 3. […] Subjects were analyzed as treated.
(§3) The primary efficacy endpoint (PFS) and secondary efficacy endpoints (OS, ORR, and DoR) analyses were carried out using the ITT population. The primary efficacy endpoint of PFS also was analyzed using the PP population.
(§4) The IRR was the primary data source for the PFS analysis.
(§5) The primary analysis was carried out by using a stratified Log-Rank test, in which the stratification factors were IMDC risk category (favorable; intermediate; poor) and prior therapy (two prior VEGFR TKIs; a prior checkpoint inhibitor (PD-1 or PD1 L inhibitor) plus a prior VEGFR TKI; a prior VEGFR TKI plus any other systemic agent), and using a two-sided 5% significance level. The distribution of the PFS was estimated using the Kaplan-Meier method.
(§6) The DoR was analyzed using the same method as the progression-free survival analysis. DoR was only calculated for the subgroup of subjects with an objective tumor response (PR or CR).

[2] = prior phase III clinical trial; cited from earlier work
[3] = 1.5 mg/day, 3 weeks on, 1 week off, cited from earlier work
[4] = cited from earlier work
[5] = tested on: refractory advanced renal cell carcinoma (RCC)
Text: as §1
Cycles were repeated every 4 weeks.
as §2, §3, §4, §5, §6

[6] = subjects with prior therapy with a VEGFR TKI plus any other systemic agent
[7] = subjects with prior therapy with a checkpoint inhibitor and a prior VEGF TKI
[8] = subjects with prior therapy with two VEGFR TKIs

SMILES	median PFS [1] [months]	difference in OS between tivozanib and sorafenib in subgroup analyses ([1]; ITT subgroups, Cox Model hazard ratios with 95% confidence intervals)	median OS [1] [months]	ORR (CR + PR) ([1]; all subjects, 31 PR/172 tivozanib, 14 PR/175 sorafenib) [%]	median PFS, subset receiving a prior check point inhibitor [1] [months]	duration of response (DoR), 1st quartile [1] [months]	1-year probability of survival [1]	ORR [1, 6] [%]	ORR [1, 7] [%]	ORR [1, 8] [%]	difference in OS between the two treatment groups ([1]; subset with prior checkpoint inhibitor, unstratified Log-rank p-value 0.8360)	treatment interruptions and dose reductions due to AEs, compared with sorafenib [2]	study subjects requiring a dose interruption ([3]; 8/272 subjects) [%]	study subjects requiring a dose reduction ([3]; 23/272 subjects) [%]	subjects experiencing a dose limiting toxicity (DLT) ([4]; 2 mg/day tivozanib group)	maximum tolerated dose (MTD) ([4]; previous study KRN951/03-B01) [mg/day]	reversibility of toxicities upon stopping treatment ([4]; previous study KRN951/03-B01)	ORR (CR + PR) [5] [%]
COc1cc2nccc(Oc3ccc(NC(=O)Nc4cc(C)on4)c(Cl)c3)c2cc1OC [tivozanib, N-{2-chloro-4-[(6,7-dimethoxy-4-quinolyl)oxy]-phenyl}-N′-(5-methyl-3-isoxazolyl)urea]	5.59	do not indicate a statistically significant difference in OS	16.39	18.0	7.29	9.79	0.37	16.7	24.4	15.2	no statistically significant differences	fewer treatment interruptions and dose reductions due to AEs	2.9	8.5	3 of 8	1.5	rapidly reversible	–
CNC(=O)c1cc(Oc2ccc(NC(=O)Nc3ccc(Cl)c(C(F)(F)F)c3)cc2)ccn1 [sorafenib, reference compound]	3.88	–	19.65	–	5.91	5.55	0.05	9.8	6.8	7.5	–	–	–	–	–	–	–	8.0
